According to patent publication US20040242700A1 (priority 2001, published 2004):
Like-named read-outs stand apart in the source and are kept apart here.

What was measured:
trypsin-type protease [1] = test system: trypsin-type protease; parameters: species or system mice; conditions: mouse, in vivo, ip
SP-A [2] = test system: SP-A; parameters: species or system mice; conditions: mouse, in vivo, ip
MPI [3] = assay type: in vivo, mice
trypsin-type protease [4] = assay type: in vivo, mice; conditions: 4th day
SP-A [5] = assay type: in vivo, mice; conditions: administration of ambroxol
MPI [6] = assay type: in vivo, mice; conditions: administration of ambroxol
[7] = test system: mucosal immunoglobulin IgA; assay type: in vivo, mice
[8] = test system: mucosal immunoglobulin IgA; assay type: in vivo, mice; remark: listed apart in the source
[9] = test system: mucosal immunoglobulin IgG; assay type: in vivo, mice
[10] = test system: mucosal immunoglobulin IgG; assay type: in vivo, mice; remark: listed apart in the source
TNF-α = assay type: in vivo, mice; conditions: 3rd to 5th day of treatment, not always observed
IL-12 = assay type: in vivo, mice
IFN-γ = assay type: in vivo, mice
IL-6 = assay type: in vivo, mice
[11] = test system: inflammatory cytokines such as TNF-α, IL-2, IL-1, IL-4, IL-13 and IFN-γ; conditions: literature reports; cited from earlier work

For Nc1c(Br)cc(Br)cc1CN[C@H]1CC[C@H](O)CC1 [ambroxol, 2-amino-3,5-dibromo-N-[trans-4-hydroxycyclohexyl] benzyl amine], the “day on which the trypsin-type protease level reached the peak value” (trypsin-type protease [1]; 10 mg/kg/day) was 5 days, the “day on which the trypsin-type protease level reached the peak level” value (trypsin-type protease [1]; 30 mg/kg/day) was 4 days and the “day on which the SP-A level reached the peak value” (SP-A [2]; 10 mg/kg/day) was 5 days. The “day on which the SP-A level reached the maximum value” (SP-A [2]; 30 mg/kg/day) was 4 days, the “MPI concentration relative to that induced by the viral infection” value (MPI [3]; […], treatment with ambroxol) was 1.9 times and the “peak MPI concentration relative to un-infected animals” value (MPI [3]; mouse, in vivo) was 8.4 times. The “day on which the MPI level reached the peak value” (MPI [3]; mouse, in vivo, ip, 10 mg/kg/day) was 5 days, the “day on which the MPI level reached the maximum value” (MPI [3]; mouse, in vivo, ip, 30 mg/kg/day) was 4 days and the “peak trypsin-type protease level relative to un-infected animals” value (trypsin-type protease [4]; 10 mg/kg/day i.p.) was “up to 2.2 times”. The “peak trypsin-type protease level relative to un-infected animals” value (trypsin-type protease [4]; 30 mg/kg/day i.p.) was at most 2.4 times, the “secretion of SP-A” value (SP-A [5]) was “lightly promoted” and the “secretion of MPI” value (MPI [6]) was “lightly promoted”. For the same compound, the “IgA concentration relative to the group free of treatment” value ([7]; 10 mg/kg/day, 7th day) was “about 10 times”, the “IgA concentration relative to the group free of treatment” value ([7]; 30 mg/kg/day, 5th day) was “about 10 times” and the “IgA concentration relative to the basic concentration” value ([7]; dose not stated) was “about 10 times”. The “IgA level relative to the basic concentration of IgA” value ([8]; 10 mg/kg/day, 7th day) was “about 600 times”, the “IgA level relative to the basic concentration of IgA” value ([8]; 30 mg/kg/day, 5th day) was about 700 times and the “IgA concentration relative to the maximum concentration induced through the viral infection” value ([8]; treatment with ambroxol) was 1.5-1.8 times. The “IgG concentration relative to the group free of treatment” value ([9]; 10 mg/kg/day, 7th day) was “about 1.2 time”, the “IgG concentration relative to the group free of treatment” value ([9]; 30 mg/kg/day, 6th day) was “about 1.2 time” and the “IgG concentration relative to the basic concentration” value ([9]; dose not stated) was 1.2 times. The “IgG concentration relative to the basic concentration of IgG” value ([10]; 10 mg/kg/day, 6th day) was “about 16 times”, the “IgG concentration relative to the basic concentration of IgG” value ([10]; 30 mg/kg/day, 5th day) was about 15 times and the “IgG concentration relative to the maximum concentration induced through the viral infection” value ([10]; treatment with ambroxol) was about 1.45 times. For the same compound, the “effect on TNF-α secretion in BALF” value (TNF-α) was “secretion-inhibitory effects”, the IL-12 (IL-12; 10 mg/kg/day i.p., day 1) was 27.3 ± 7.1 pg/mL and the IL-12 (IL-12; 10 mg/kg/day i.p., day 2) was 68.5 ± 12.9 pg/mL. The IL-12 (IL-12; 10 mg/kg/day i.p., day 3) was 133.3 ± 17.2 pg/mL, the IL-12 (IL-12; 10 mg/kg/day i.p., day 4) was 119.5 ± 15.8 pg/mL and the IL-12 (IL-12; 10 mg/kg/day i.p., day 5) was 57.4 ± 16.0 pg/mL. The IL-12 (IL-12; 10 mg/kg/day i.p., day 6) was 29.4 ± 6.2 pg/mL, the IL-12 (IL-12; 10 mg/kg/day i.p., day 7) was 62.5 ± 27.7 pg/mL and the IL-12 (IL-12; 30 mg/kg/day i.p., day 1) was 22.4 ± 4.1 pg/mL. It also gave an IL-12 (IL-12; 30 mg/kg/day i.p., day 2) of 108.2 ± 33.3 pg/mL, an IL-12 (IL-12; 30 mg/kg/day i.p., day 3) of 141.5 ± 15.1 pg/mL and an IL-12 (IL-12; 30 mg/kg/day i.p., day 4) of 118.6 ± 11.4 pg/mL. It also gave an IL-12 (IL-12; 30 mg/kg/day i.p., day 5) of 62.4 ± 13.6 pg/mL, an IL-12 (IL-12; 30 mg/kg/day i.p., day 6) of 44.3 ± 29.1 pg/mL and an IL-12 (IL-12; 30 mg/kg/day i.p., day 7) of 95.8 ± 52.2 pg/mL. The INF-γ (IFN-γ; 10 mg/kg/day i.p., day 1) was 9.4 ± 2.4 pg/mL, the INF-γ (IFN-γ; 10 mg/kg/day i.p., day 2) was 9.5 ± 1.8 pg/mL and the INF-γ (IFN-γ; 10 mg/kg/day i.p., day 3) was 2.8 ± 0.9 pg/mL. For the same compound, the IFN-γ (IFN-γ; 10 mg/kg/day i.p., day 4) was 5.3 ± 2.8 pg/mL, the IFN-γ (IFN-γ; 10 mg/kg/day i.p., day 5) was 14.7 ± 5.3 pg/mL and the IFN-γ (IFN-γ; 10 mg/kg/day i.p., day 6) was 39.4 ± 18.6 pg/mL. It also gave an IFN-γ (IFN-γ; 10 mg/kg/day i.p., day 7) of 4.0 ± 1.6 pg/mL, an INF-γ (IFN-γ; 30 mg/kg/day i.p., day 1) of 10.4 ± 2.7 pg/mL and an INF-γ (IFN-γ; 30 mg/kg/day i.p., day 2) of 9.8 ± 2.4 pg/mL. It also gave an INF-γ (IFN-γ; 30 mg/kg/day i.p., day 3) of 4.0 ± 1.1 pg/mL, an IFN-γ (IFN-γ; 30 mg/kg/day i.p., day 4) of 10.2 ± 5.5 pg/mL and an IFN-γ (IFN-γ; 30 mg/kg/day i.p., day 5) of 32.8 ± 11.1 pg/mL. For the same compound, the IFN-γ (IFN-γ; 30 mg/kg/day i.p., day 6) was 61.8 ± 21.7 pg/mL, the IFN-γ (IFN-γ; 30 mg/kg/day i.p., day 7) was 5.1 ± 1.8 pg/mL and the “effect on INF-γ secretion in BALF” value (IFN-γ; 1st day of treatment, not always observed) was “secretion-inhibitory effects”. The IL-6 (IL-6; 10 mg/kg/day i.p., day 1) was 174.8 ± 35.0 pg/mL, the IL-6 (IL-6; 10 mg/kg/day i.p., day 2) was 191.8 ± 51.9 pg/mL and the IL-6 (IL-6; 10 mg/kg/day i.p., day 3) was 280.2 ± 54.2 pg/mL. It also gave an IL-6 (IL-6; 10 mg/kg/day i.p., day 4) of 339.2 ± 57.1 pg/mL, an IL-6 (IL-6; 10 mg/kg/day i.p., day 5) of 540.9 ± 84.2 pg/mL and an IL-6 (IL-6; 10 mg/kg/day i.p., day 6) of 503.23 ± 61.4 pg/mL. For the same compound, the IL-6 (IL-6; 10 mg/kg/day i.p., day 7) was 73.7 ± 14.7 pg/mL, the IL-6 (IL-6; 30 mg/kg/day i.p., day 1) was 170.8 ± 28.9 pg/mL and the IL-6 (IL-6; 30 mg/kg/day i.p., day 2) was 186.7 ± 19.6 pg/mL. The IL-6 (IL-6; 30 mg/kg/day i.p., day 3) was 326.2 ± 44.9 pg/mL, the IL-6 (IL-6; 30 mg/kg/day i.p., day 4) was 433.5 ± 101.9 pg/mL and the IL-6 (IL-6; 30 mg/kg/day i.p., day 5) was 478.2 ± 86.4 pg/mL. For the same compound, the IL-6 (IL-6; 30 mg/kg/day i.p., day 6) was 817.0 ± 168.0 pg/mL, the IL-6 (IL-6; 30 mg/kg/day i.p., day 7) was 80.0 ± 17.5 pg/mL and the “effect on the level of IL-6 in BALF” value (IL-6; 4th and 6th days of treatment) was “increased”. The “in vitro release of inflammatory cytokines such as TNF-α, IL-2, IL-1, IL-4, IL-13 and IFN-γ” value [11] was “inhibits”.
